Consider 7 molecules from US20260272966A1, “COMBINATION TREATMENT FOR OVARIAN CANCER” (THE JOHNS HOPKINS UNIVERSITY, priority 2023, published 2026).

Entries after “also recorded” stand apart in the source; their conditions may differ.

One data set concerns OV90. Nature of the data set: Cell viability assay (CellTiter-Blue), OV90. It counts as cell-based. As to conditions: for toxicity of the chemotherapeutic agent with ivospemin co-treatment (cell viability): OV90, 2 μM ivospemin 96 h, chemotherapeutic last 24 h. From the text:
(§1) Cell lines, culture conditions, and reagents. Ovarian adenocarcinoma cell lines A2780 and ACRP were maintained in RPMI 1640 containing 10% fetal bovine serum. Ovarian adenocarcinoma lines CaOV-3 and OV90 were maintained in DMEM supplemented with 10% fetal bovine serum. ID8 mouse ovarian surface epithelial cells (MOSE) overexpressing VEGF and β-Defensin (VDID8+) were maintained in RPMI 1640 supplemented with 10% fetal bovine serum. […] All chemotherapeutics were purchased commercially from Sigma-Aldrich (St. Louis, MO).
(§2) Cell viability assays. Cells were seeded in triplicate wells per condition with a total cell count of 2×10^3 cells per well of a 96-well plate and allowed to adhere overnight. Cells then received 100 μL fresh medium with increasing concentrations of ivospemin. Following 96 hours of ivospemin monotherapy, 20 μL of CellTiter-Blue reagent (Promega, Madison, WI) was added, and following a 3-hour incubation, the fluorescence was measured in black, clear-bottom plates at 560Ex/590Em on a SpectraMax M5 (Molecular Devices, Sunnyvale CA). Wells containing medium alone were used as background controls. The combination chemotherapy/ivospemin experiment conditions were identical except following 72 hours of ivospemin exposure, cells received fresh medium with ivospemin and the appropriate chemotherapeutic. After an additional 24 hours (96 total hours of ivospemin, 24 hours of chemotherapy), cell viability was determined using the CellTiter-Blue cell viability assay. Results are presented as percentages relative to untreated cells. Each bar is an average of at least 3 independent biological experiments (each experiment is noted by an individual point).
In general terms: Alamar Blue is a resazurin reagent that responds to reducing activity.

Data set [1] deals with ovarian adenocarcinoma cell lines. Kind of data set: Cell viability, ovarian adenocarcinoma cell lines taken together. Type of data set: cell-based. Particulars: for added in vitro toxicity/benefit of the chemotherapeutic over ivospemin (SBP-101) alone: cisplatin-sensitive and cisplatin-resistant ovarian cancer cell lines.
Text: as §1, §2
The cisplatin-sensitive ovarian adenocarcinoma lines, A2780 and OV90 (FIG. 4A), and the cisplatin-resistant ovarian adenocarcinoma lines, ACRP and CaOV-3 (FIG. 4B), were treated for 96 hours with concentrations of ivospemin ranging from 500 nM to 10 μM. […] These four ovarian adenocarcinoma lines were then treated with various chemotherapeutic agents including gemcitabine (50 nM), topotecan (50 nM), paclitaxel (2 nM) and docetaxel (2 nM). These agents represent standard of care chemotherapeutic options used with some regularity in patients with platinum-resistant ovarian cancer. Cells were treated with three increasing concentrations of each chemotherapy alone to determine an appropriate dose prior to combination studies.

The next data set deals with SSAT. Nature of the data set: SSAT activity in treated ovarian adenocarcinoma line. Type of data set: cell-based, human. As to conditions: ivospemin 5 μM, doxorubicin 500 nM, 48 hours. How it is done:
(§3) FIG. 11. […] The activity of the polyamine catabolic enzyme SSAT and the polyamine biosynthetic enzyme ODC was evaluated.
(§4) The activity of polyamine catabolic enzyme SSAT and polyamine biosynthetic enzyme ODC were evaluated.

For another data set, the system named is ODC. Nature of the data set: ODC activity in treated ovarian adenocarcinoma line. Type of data set: cell-based, human. As to conditions: ivospemin 5 μM, doxorubicin 500 nM, 48 hours. On the procedure:
as §3, §4

The conditions of data set [2]: in vivo; cited from earlier work.
For data set [3], the system named is VDID8+ syngeneic ovarian epithelial cancer cells. Nature of the data set: VDID8+ syngeneic mouse model of ovarian cancer (survival, ascites). Particulars: for effect on survival as single agent / average ascites volume at first drain: monotherapy; for effect on survival as single agent: VDID8+ model; for average time between VDID8+ cell injection and ascites formation: 15% weight gain or visible abdominal swelling.
Experimental: Syngeneic mouse model. Female C57BL/6J wild-type mice (7-8 weeks old, The Jackson Laboratory) were housed at the Johns Hopkins Sidney Kimmel Comprehensive Cancer Center Animal Resources Core and cared for in accordance with the policies set forth by the Johns Hopkins University Animal Care and Use Committee. VEGF-β-Defensin ID8 (VDID8+) syngeneic mouse ovarian surface epithelial cells (first developed by Dr. Katherine Roby) were injected intraperitoneally into C57BL/6 mice (350,000 cells/mouse) (Roby et al., 2000). Treatment of mice began three days following VDID8^+ injection. Mice in the combination study were treated with the following dosing schedule: 24 mg/kg ivospemin 2qw×3, alternating weeks; 30 mg/kg gemcitabine qw×4; 1 mg/kg topotecan 3qw×4. All drugs were administered intraperitoneally. Following production of palpable ascites fluid or a 15% weight gain, animals were drained of their ascites fluid, which was measured as a marker for tumor burden. Decisions for subsequent drains was determined by the same criteria. No animals were drained more than once a week, and animals who survived to a fourth drain were subsequently euthanized.
Statistical analysis. All statistical testing was completed using GraphPad Prism software (v9.5.1, La Jolla, CA). […] Multiple testing correction was performed based on the Benjamini-Hochberg method. […] All mouse survival curves were analyzed using the log-rank (Mantel-Cox) test. Mouse ascites data were analyzed by one-way ANOVA and then individual comparisons were analyzed by two-sided Welch's t-tests unless otherwise specified. Multiple testing correction was performed based on the Benjamini-Hochberg method. […] P-value indications are as follows: *<0.05; **<0.01; ***<0.001; ****<0.0001.

The next data set has as its system tumor putrescine levels. As to conditions: eflornithine infusion; cited from earlier work.
The subject of the next data set is A2780. Nature of the data set: Cell viability assay (CellTiter-Blue), A2780. Particulars: for toxicity of the chemotherapeutic agent with ivospemin co-treatment (cell viability): A2780, 2 μM ivospemin 96 h, gemcitabine 50 nM, topotecan 50 nM, paclitaxel 2 nM, docetaxel 2 nM last 24 h. It counts as cell-based.
Text: as §1, §2

Another data set relates to CaOV-3. Kind of data set: Cell viability assay (CellTiter-Blue), CaOV-3. Type of data set: cell-based. As to conditions: for toxicity of the chemotherapeutic agent with ivospemin co-treatment (cell viability): CaOV-3, 2 μM ivospemin 96 h, chemotherapeutic last 24 h.
Text: as §1, §2

The test system of the next data set is ACRP. Kind of data set: Cell viability assay (CellTiter-Blue), ACRP. Type of data set: cell-based. Particulars: for toxicity of the chemotherapeutic agent with ivospemin co-treatment (cell viability): 2 μM ivospemin 96 h, chemotherapeutic last 24 h.
Text: as §1, §2

For another data set, the system named is VDID8+ cells. Particulars: NSG mice.

On to `CC(=O)O[C@@]12CO[C@@H]1C[C@H](O)[C@@]1(C)C(=O)[C@H](O)C3=C(C)[C@@H](OC(=O)[C@H](O)[C@@H](NC(=O)OC(C)(C)C)c4ccccc4)C[C@@](O)([C@@H](OC(=O)c4ccccc4)[C@H]21)C3(C)C` [docetaxel], for which the “toxicity of the chemotherapeutic agent with ivospemin co-treatment (cell viability)” value (from here on “toxicity of the chemotherapeutic agent”) with OV90 is on record as “did not increase”. In [1], the “added in vitro toxicity/benefit of the chemotherapeutic over ivospemin (SBP-101) alone” value is reported as “little to no benefit; also recorded: did not have any added benefit”.

`COc1cccc2c1C(=O)c1c(O)c3c(c(O)c1C2=O)C[C@@](O)(C(=O)CO)C[C@@H]3OC1CC(N)C(O)C(C)O1` (stereo partly drawn) [doxorubicin, (8S,10S)-10-(4-amino-5-hydroxy-6-methyl-tetrahydro-2H-pyran-2-yloxy)-6,8,11-trihydroxy-8-(2-hydroxyacetyl)-1-methoxy-7,8,9,10-tetrahydrotetracene-5,12-dione]: the SSAT activity entry in the data set with SSAT is reported as “increases SSAT activity”. In addition, the ODC activity entry with ODC is given as “does not have any effect”. Further, the “nausea and vomiting, share of people treated” value in data set [2] is given as 30-90%. The same molecule registered a median survival in [3] (ivospemin 24 mg/kg 2qw×4 alternating weeks, doxorubicin 0.5 mg/kg 2qw×4) of 96 days. The “effect on survival as single agent” value in [3] is “significantly increased”.

Consider `NCCCC(N)(C(=O)O)C(F)F` (stereo not shown) [eflornithine, 2,5-diamino-2-(difluoromethyl) pentanoic acid], for which the “decrease in tumor putrescine levels” value with tumor putrescine levels was 90%.

Regarding `Nc1ccn([C@@H]2O[C@H](CO)[C@@H](O)C2(F)F)c(=O)n1` [gemcitabine], the “toxicity of the chemotherapeutic agent” value was “did increase; also recorded: increased the toxicity” in the data set with OV90, “significantly exceeded the effect of ivospemin alone” in the data set on A2780, “significantly increased; also recorded: increased the toxicity” with CaOV-3 and “greater toxicity than ivospemin alone; also recorded: significantly exceeded the effect of ivospemin alone” in the data set on ACRP. For the same molecule, the “added in vitro toxicity/benefit of the chemotherapeutic over ivospemin (SBP-101) alone” value in data set [1] was “increased ivospemin toxicity; also recorded: increased the in vitro toxicity of SBP-101”. Further, the “average time between VDID8+ cell injection and ascites formation” value in [3] was 41.7 days. Also, the “average ascites volume at first drain” value in data set [3] came out at 2.03 mL. The “effect on survival as single agent” value in data set [3] is “Neither gemcitabine nor topotecan produced a statistically significant survival benefit”; in data set [3] (listed as Gemcitabine) it was “little effect”.

On to `CCNCCC(O)CNCCCCNCC(O)CCNCC` (stereo not shown) [ivospemin, 3,8,13,18-tetraazaicosane-6,15-diol], for which the IC50 was 3.24 µM with OV90 (Homo sapiens, OV-90, ivospemin 96 hours, OV90, cisplatin sensitive); 0.95 µM in the data set with A2780 (Homo sapiens, ivospemin 96 hours, A2780, cisplatin sensitive); 2.56 µM in the data set on CaOV-3 (Homo sapiens, ivospemin 96 hours, CaOV-3, cisplatin resistant); 1.41 µM in the data set with ACRP (ivospemin 96 hours, cisplatin resistant); 0.95 to 3.24 µM in data set [1] (96 hours, A2780, OV90, ACRP, CaOV-3, read-out: IC50 values, all four lines). The SSAT activity entry with SSAT is on record as “increases SSAT activity”; in the data set with SSAT (listed as SBP-101), “increase SSAT activity”. Also, the values for the ODC activity entry with ODC and in the data set with ODC (listed as SBP-101) were “depression of ODC activity” and “decreases ODC activity”, respectively. In addition, the “tumor burden and ascites formation” value in the data set with VDID8+ cells was “Neither ivospemin alone nor the combination treatment decrease tumor burden or delayed ascites formation”. The “average time between VDID8+ cell injection and ascites formation” value in data set [3] is reported as 39.5 days. Moreover, in data set [3] (days post-injection, ivospemin 24 mg/kg 2qw×3 alternating weeks, gemcitabine 30 mg/kg qw×4, topotecan 1 mg/kg 3qw×4, i.p.), the median survival stood at 52 days. Moreover, the “increase in median survival compared to untreated (control) animals” value in [3] (gemcitabine/topotecan combination study) was 20%. The “average ascites volume at first drain” value in data set [3] came out at 1.15 mL. Further, the “effect on survival as single agent” value in data set [3] (listed as SBP-101) was “marked increase; also recorded: significantly increased”.

Turning to `CC(=O)O[C@H]1C(=O)[C@@]2(C)[C@H]([C@H](OC(=O)c3ccccc3)[C@]3(O)C[C@H](OC(=O)[C@H](O)[C@@H](NC(=O)c4ccccc4)c4ccccc4)C(C)=C1C3(C)C)[C@]1(OC(C)=O)CO[C@@H]1C[C@@H]2O` [paclitaxel], in the data set on OV90, the “toxicity of the chemotherapeutic agent” value is on record as “did not increase”. The figures for the “added in vitro toxicity/benefit of the chemotherapeutic over ivospemin (SBP-101) alone” value in [1] and in data set [1] (listed as Paclitaxel) were “little to no benefit” and “did not have any added benefit”, respectively.

Regarding `CC[C@@]1(O)C(=O)OCc2c1cc1n(c2=O)Cc2cc3c(CN(C)C)c(O)ccc3nc2-1` [topotecan], the “toxicity of the chemotherapeutic agent” value in the data set on OV90 is on record as “did increase; also recorded: increased the toxicity”; with A2780, “significantly exceeded the effect of ivospemin alone”; in the data set on CaOV-3, “significantly increased; also recorded: increased the toxicity”; in the data set with ACRP, “greater toxicity than ivospemin alone; also recorded: significantly exceeded the effect of ivospemin alone”. Moreover, the “added in vitro toxicity/benefit of the chemotherapeutic over ivospemin (SBP-101) alone” value in data set [1] is on record as “increased ivospemin toxicity; also recorded: increased the in vitro toxicity of SBP-101”. Further, in data set [3], the “average time between VDID8+ cell injection and ascites formation” value is recorded as 43.4 days. The “average ascites volume at first drain” value in [3] is listed as 3.19 mL. In addition, in data set [3], the “effect on survival as single agent” value was “Neither gemcitabine nor topotecan produced a statistically significant survival benefit; also recorded: little effect”.

As usually defined, the IC50 is the concentration at which inhibition is half-maximal.
